Results on four molecules are retold here after paper PMC9475448, “What a difference a methylene makes: replacing Glu with Asp or Aad in the Lys-urea-Glu pharmacophore of PSMA-targeting radioligands to reduce kidney and salivary gland uptake” (Theranostics, 2022).

Data set [1] addresses T1, PSMA (Homo sapiens, UniProt Q04609).
T1 construct: LNCaP cells (400,000/well) were plated onto a 24-well poly-D-lysine coated plate for 48 h; endogenous in cells; host or cells: LNCaP prostate cancer cells
Further details: method as in PMID 30251544. The following applies: same assay conditions, reported previously; cited from earlier work.

Data set [2] has as its system mouse kidneys and salivary glands. In words: Biodistribution of previously reported [68Ga]Ga-HTK03041 in mice. To be noted: 1h post-injection, unreported data of the earlier study. In kind it is in vivo.
For data set [3] the test system is unchanged. Further details: method as in PMID 32859704. The following applies: 1h post-injection; cited from earlier work.
Data set [4] addresses T1, PSMA. Further details: method as in PMID 30097503. The following applies: read-out: Ki (PSMA inhibitor); cited from earlier work.
The subject of another data set is mouse model. To be noted: up to 657 mg/kg; cited from earlier work.
A further data set deals with parotid gland. To be noted: in vivo; cited from earlier work.

Read-outs that look alike come from different tables or passages of the source.

T1 sequence (Q04609 whole entry): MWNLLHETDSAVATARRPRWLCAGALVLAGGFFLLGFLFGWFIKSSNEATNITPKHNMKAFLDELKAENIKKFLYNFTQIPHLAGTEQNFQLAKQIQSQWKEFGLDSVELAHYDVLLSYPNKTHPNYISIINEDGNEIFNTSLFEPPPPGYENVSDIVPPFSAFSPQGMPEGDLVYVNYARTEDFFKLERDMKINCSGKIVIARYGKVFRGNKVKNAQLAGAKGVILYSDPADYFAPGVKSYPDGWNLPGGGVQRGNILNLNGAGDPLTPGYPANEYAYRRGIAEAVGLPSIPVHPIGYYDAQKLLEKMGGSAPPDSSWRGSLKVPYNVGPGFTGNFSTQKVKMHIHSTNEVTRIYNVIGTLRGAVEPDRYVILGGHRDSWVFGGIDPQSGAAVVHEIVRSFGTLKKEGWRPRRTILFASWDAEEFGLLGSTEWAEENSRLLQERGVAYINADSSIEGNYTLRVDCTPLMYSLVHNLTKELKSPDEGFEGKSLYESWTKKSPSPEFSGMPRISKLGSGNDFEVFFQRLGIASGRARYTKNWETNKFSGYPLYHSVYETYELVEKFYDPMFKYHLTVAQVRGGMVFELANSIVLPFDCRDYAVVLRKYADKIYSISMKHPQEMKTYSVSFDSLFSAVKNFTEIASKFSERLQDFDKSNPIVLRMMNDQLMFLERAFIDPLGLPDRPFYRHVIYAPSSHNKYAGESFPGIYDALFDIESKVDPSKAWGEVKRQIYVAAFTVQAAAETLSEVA

In general, Ki refers to the dissociation constant of the complex between target and ligand, obtained from inhibition or displacement. In the case of `O=C([O-])CN1CCN(CC(=O)[O-])CCN(CC(=O)NCC2CCC(C(=O)N[C@@H](Cc3ccc4ccccc4c3)C(=O)NCCCC[C@H](NC(=O)N[C@@H](CCC(=O)O)C(=O)O)C(=O)O)CC2)CCN(CC(=O)[O-])CC1.[Lu+3]` (stereo partly drawn) [Lu-PSMA-617], the Ki at PSMA [1] is 0.24 ± 0.06 nM.

On to `O=C([O-])CN1CCN(CC(=O)[O-])CCN(CC(=O)NCC2CCC(C(=O)NC(Cc3c4ccccc4cc4ccccc34)C(=O)NCCCCC(NC(=O)NC(CCC(=O)O)C(=O)O)C(=O)O)CC2)CCN(CC(=O)[O-])CC1.[68Ga+3]` (stereo not drawn) [[^68Ga]Ga-HTK03041], for which the Salivary gland uptake in data set [2] was 4.99±0.88 %IA/g. For the same molecule, the Kidney uptake in data set [3] is given as 170±26.4 %IA/g.

Take `N[C@@H](CCC(=O)O)C(=O)[O-].[Na+]` [monosodium glutamate]: the Ki on PSMA [4] was 900 nM. For the same molecule, the “Effect of pretreatment on [68Ga]Ga-PSMA-11 uptake” value with mouse model is “reduced uptake of [^68Ga]Ga-PSMA-11 in salivary glands and kidneys but had no effect on tumor uptake”.

With botulinum toxin A, in the data set on parotid gland, the “Reduction in SUVmean of the treated parotid gland in [68Ga]Ga-PSMA-11 scan vs baseline” value is given as “up to 64%”.
